Assay results: PubChem BioAssay (NCI)
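Test compounds were applied to cells in 96-well plates for 48 hours at 5 doses. TGI denotes the concentration required for complete inhibition of growth.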 Where a SMILES comes first, the peptide text is derived from it. The star is where a group is joined. Cbz = O=C(OCc1ccccc1)*; OBn = c1ccc(CO*)cc1

Experiments:
Test in all cases: growth of human tumour cells (NCI), 48 h
MCF7 breast = tested on: MCF7 breast
SK-MEL-28 melanoma = tested on: SK-MEL-28 melanoma
SF-539 CNS = tested on: SF-539 CNS
SR leukemia = tested on: SR leukemia
RXF 393 renal = tested on: RXF 393 renal
UO-31 renal = tested on: UO-31 renal
MDA-N = tested on: MDA-N
OVCAR-3 ovarian = tested on: OVCAR-3 ovarian
K-562 leukemia = tested on: K-562 leukemia
SK-OV-3 ovarian = tested on: SK-OV-3 ovarian
IGROV1 ovarian = tested on: IGROV1 ovarian
NCI-H226 lung = tested on: NCI-H226 lung
MDA-MB-435 = tested on: MDA-MB-435
LOX IMVI melanoma = tested on: LOX IMVI melanoma
T-47D breast = tested on: T-47D breast
BT-549 breast = tested on: BT-549 breast
HCT-15 colon = tested on: HCT-15 colon
OVCAR-8 ovarian = tested on: OVCAR-8 ovarian
NCI/ADR-RES ovarian = tested on: NCI/ADR-RES ovarian
SNB-75 CNS = tested on: SNB-75 CNS
A498 renal = tested on: A498 renal
HS 578T breast = tested on: HS 578T breast
TK-10 renal = tested on: TK-10 renal
HT29 colon = tested on: HT29 colon
A549 NSCLC = tested on: A549 NSCLC
EKVX NSCLC = tested on: EKVX NSCLC
UACC-257 melanoma = tested on: UACC-257 melanoma
PC-3 prostate = tested on: PC-3 prostate
NCI-H23 lung = tested on: NCI-H23 lung
HL-60(TB) leukemia = tested on: HL-60(TB) leukemia
U251 CNS = tested on: U251 CNS
SF-295 CNS = tested on: SF-295 CNS
NCI-H460 lung = tested on: NCI-H460 lung
M14 melanoma = tested on: M14 melanoma
OVCAR-5 ovarian = tested on: OVCAR-5 ovarian
SK-MEL-2 melanoma = tested on: SK-MEL-2 melanoma
HCC-2998 colon = tested on: HCC-2998 colon
HCT-116 colon = tested on: HCT-116 colon
CCRF-CEM leukemia = tested on: CCRF-CEM leukemia
SW-620 colon = tested on: SW-620 colon
KM12 colon = tested on: KM12 colon
DU-145 prostate = tested on: DU-145 prostate
RPMI-8226 leukemia = tested on: RPMI-8226 leukemia
UACC-62 melanoma = tested on: UACC-62 melanoma
OVCAR-4 ovarian = tested on: OVCAR-4 ovarian
SK-MEL-5 melanoma = tested on: SK-MEL-5 melanoma
CAKI-1 renal = tested on: CAKI-1 renal
SF-268 CNS = tested on: SF-268 CNS
SNB-19 CNS = tested on: SNB-19 CNS
MOLT-4 leukemia = tested on: MOLT-4 leukemia
NCI-H522 lung = tested on: NCI-H522 lung
786-0 renal = tested on: 786-0 renal
HOP-62 NSCLC = tested on: HOP-62 NSCLC
ACHN renal = tested on: ACHN renal
MDA-MB-231 breast = tested on: MDA-MB-231 breast
COLO 205 colon = tested on: COLO 205 colon
SN12C renal = tested on: SN12C renal
MALME-3M melanoma = tested on: MALME-3M melanoma
HOP-92 NSCLC = tested on: HOP-92 NSCLC

Structure (SMILES): COc1ccc(-c2c(N)n(-c3cccc(C(=O)O)c3)c(=O)c3cc([N+](=O)[O-])ccc23)cc1
- TGI (MCF7 breast): > 100 µM
- TGI (SK-MEL-28 melanoma): > 100 µM
- TGI (SF-539 CNS): > 100 µM
- TGI (SR leukemia): > 100 µM
- TGI (RXF 393 renal): > 100 µM
- TGI (UO-31 renal): > 100 µM
- TGI (MDA-N): > 100 µM
- TGI (OVCAR-3 ovarian): > 100 µM
- TGI (K-562 leukemia): > 100 µM
- TGI (SK-OV-3 ovarian): > 100 µM
- TGI (IGROV1 ovarian): > 100 µM
- TGI (NCI-H226 lung): > 100 µM
- TGI (MDA-MB-435): > 100 µM
- TGI (LOX IMVI melanoma): > 100 µM
- TGI (T-47D breast): > 100 µM
- TGI (BT-549 breast): > 100 µM
- TGI (HCT-15 colon): > 100 µM
- TGI (OVCAR-8 ovarian): > 100 µM
- TGI (NCI/ADR-RES ovarian): > 100 µM
- TGI (SNB-75 CNS): > 100 µM
- TGI (A498 renal): > 100 µM
- TGI (HS 578T breast): > 100 µM
- TGI (TK-10 renal): > 100 µM
- TGI (HT29 colon): > 100 µM
- TGI (A549 NSCLC): > 100 µM
- TGI (EKVX NSCLC): > 100 µM
- TGI (UACC-257 melanoma): > 100 µM
- TGI (PC-3 prostate): > 100 µM
- TGI (NCI-H23 lung): > 100 µM
- TGI (HL-60(TB) leukemia): > 100 µM
- TGI (U251 CNS): > 100 µM
- TGI (SF-295 CNS): > 100 µM
- TGI (NCI-H460 lung): > 100 µM
- TGI (M14 melanoma): > 100 µM
- TGI (OVCAR-5 ovarian): > 100 µM
- TGI (SK-MEL-2 melanoma): > 100 µM
- TGI (HCC-2998 colon): > 100 µM
- TGI (HCT-116 colon): > 100 µM
- TGI (CCRF-CEM leukemia): > 100 µM
- TGI (SW-620 colon): > 100 µM
- TGI (KM12 colon): > 100 µM
- TGI (DU-145 prostate): > 100 µM
- TGI (RPMI-8226 leukemia): > 100 µM
- TGI (UACC-62 melanoma): > 100 µM
- TGI (OVCAR-4 ovarian): > 100 µM
- TGI (SK-MEL-5 melanoma): > 100 µM
- TGI (CAKI-1 renal): > 100 µM
- TGI (SF-268 CNS): > 100 µM
- TGI (SNB-19 CNS): > 100 µM
- TGI (MOLT-4 leukemia): > 100 µM
- TGI (NCI-H522 lung): > 100 µM
- TGI (786-0 renal): > 100 µM
- TGI (HOP-62 NSCLC): > 100 µM
- TGI (ACHN renal): > 100 µM

Structure (SMILES): COC(=O)C(Cc1ccc(O)cc1)NC(=O)C(CC(=O)OCc1ccccc1)NC(=O)OCc1ccccc1 (centres undefined) (Cbz-Asp(OBn)-Tyr-OMe; configuration not given here)
- TGI (SK-MEL-28 melanoma): 31.3 µM
- TGI (SR leukemia): 66.3 µM
- TGI (RXF 393 renal): 29.5 µM
- TGI (UO-31 renal): 49 µM
- TGI (MDA-N): 35.7 µM
- TGI (MDA-MB-231 breast): 37.5 µM
- TGI (K-562 leukemia): > 100 µM
- TGI (COLO 205 colon): 39.4 µM
- TGI (IGROV1 ovarian): 31.1 µM
- TGI (NCI-H226 lung): 43.2 µM
- TGI (T-47D breast): 40 µM
- TGI (BT-549 breast): 37.4 µM
- TGI (HCT-15 colon): 33.7 µM
- TGI (OVCAR-8 ovarian): 35.6 µM
- TGI (SNB-75 CNS): 32.6 µM
- TGI (A498 renal): 62.4 µM
- TGI (HS 578T breast): 69.6 µM
- TGI (TK-10 renal): 33.5 µM
- TGI (HT29 colon): 32.2 µM
- TGI (A549 NSCLC): 37 µM
- TGI (EKVX NSCLC): 46.7 µM
- TGI (UACC-257 melanoma): 45.5 µM
- TGI (PC-3 prostate): 31.6 µM
- TGI (NCI-H23 lung): 66.1 µM
- TGI (HL-60(TB) leukemia): 52.7 µM
- TGI (U251 CNS): 35 µM
- TGI (NCI-H460 lung): 25.9 µM
- TGI (M14 melanoma): 44.4 µM
- TGI (OVCAR-5 ovarian): 43.2 µM
- TGI (SN12C renal): 39.3 µM
- TGI (MALME-3M melanoma): > 100 µM
- TGI (SK-MEL-2 melanoma): 34.8 µM
- TGI (HOP-92 NSCLC): > 100 µM
- TGI (HCC-2998 colon): 31.5 µM
- TGI (HCT-116 colon): 35.1 µM
- TGI (CCRF-CEM leukemia): > 100 µM
- TGI (SW-620 colon): 44.8 µM
- TGI (KM12 colon): 39.5 µM
- TGI (RPMI-8226 leukemia): 49.8 µM
- TGI (SK-MEL-5 melanoma): 34.1 µM
- TGI (SNB-19 CNS): 34.1 µM
- TGI (MOLT-4 leukemia): 61.5 µM
- TGI (786-0 renal): 32.1 µM
- TGI (HOP-62 NSCLC): 34.6 µM
- TGI (ACHN renal): 34.8 µM
